Measured values reported in patent US20240245793A1, “PSD-95 INHIBITORS AND USES THEREOF” (priority 2021, published 2024).
Where two headings read alike, the source gives them in different places.

Target: T1, plasmin (Homo sapiens, UniProt P00747)
T1 construct: Tissue plasminogen factor (tPA), which generates plasmin from plasminogen
Experiment: In vitro plasmin stability assay
Format: in vitro ADME
Experimental: At selected time points during the incubation, the ligands were extracted from 80 μL of assay matrix by treatment with 80 μL of 50% acetonitrile (ACN). The samples were filtered and analysed by UPLC to determine the amount of ligand remaining. LC-MS analysis was performed to confirm ligand integrity and identify cleavage sites.

[1] = isolated enzyme plasmin, read-out: T1/2

T1 sequence (P00747 581-810 limits assumed, species assumed): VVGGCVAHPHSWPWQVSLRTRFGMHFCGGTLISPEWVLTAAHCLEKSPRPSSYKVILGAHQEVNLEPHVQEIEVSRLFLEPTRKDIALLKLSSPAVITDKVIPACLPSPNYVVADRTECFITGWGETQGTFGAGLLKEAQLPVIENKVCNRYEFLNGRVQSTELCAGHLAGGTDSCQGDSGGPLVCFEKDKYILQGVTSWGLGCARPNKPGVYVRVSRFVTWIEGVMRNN
T1 sequence (P00747 97-580 partner limits assumed, species assumed): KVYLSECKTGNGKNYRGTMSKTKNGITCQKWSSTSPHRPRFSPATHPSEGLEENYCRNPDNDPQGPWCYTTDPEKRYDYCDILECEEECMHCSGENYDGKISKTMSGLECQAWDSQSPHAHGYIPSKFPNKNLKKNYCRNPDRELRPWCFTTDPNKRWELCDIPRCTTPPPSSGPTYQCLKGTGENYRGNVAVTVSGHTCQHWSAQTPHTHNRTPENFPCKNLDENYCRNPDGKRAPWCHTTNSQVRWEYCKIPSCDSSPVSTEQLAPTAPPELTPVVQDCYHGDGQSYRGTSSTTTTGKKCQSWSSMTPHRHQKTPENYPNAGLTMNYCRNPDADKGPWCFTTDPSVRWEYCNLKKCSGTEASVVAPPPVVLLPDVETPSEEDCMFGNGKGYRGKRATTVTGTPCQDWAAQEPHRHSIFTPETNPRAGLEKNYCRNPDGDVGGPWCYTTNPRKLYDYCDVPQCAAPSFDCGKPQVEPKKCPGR

Row | half-life at 100 μM (isolated enzyme plasmin) | Compound | other results
1 |  | CC[C@H](C)[C@H](NC(=O)CCOCCOCCN(CCOCCOCCC(=O)N[C@H](C(=O)N[C@@H](CCC(=O)O)C(=O)N[C@H](C(=O)N[C@@H](CC(=O)O)C(=O)N[C@H](C(=O)O)C(C)C)[C@@H](C)O)[C@@H](C)CC)C(=O)[C@H](CCCNC(=N)N)NC(=O)[C@H](CCCNC(=N)N)NC(=O)[C@H](CCCNC(=N)N)NC(=O)[C@H](CCC(N)=O)NC(=O)[C@H](CCCNC(=N)N)NC(=O)[C@H](CCCNC(=N)N)NC(=O)[C@H](CCCCN)NC(=O)[C@H](CCCCN)NC(=O)[C@H](CCCNC(=N)N)NC(=O)CNC(=O)[C@H](Cc1ccc(O)cc1)NC(C)=O)C(=O)N[C@@H](CCC(=O)O)C(=O)N[C@H](C(=O)N[C@@H](CC(=O)O)C(=O)N[C@H](C(=O)O)C(C)C)[C@@H](C)O [Compound 9] | half-life [1]: 3.82 ± 2.15 h; half-life (read-out: T1/2): 3.82 ± 2.15 h
2 | 19.2 ± 3.38 h | CC(=O)N[C@@H](CCCNC(=N)N)C(=O)N[C@@H](CCCNC(=N)N)C(=O)N[C@@H](CCCNC(=N)N)C(=O)N[C@@H](CCCNC(=N)N)C(=O)N[C@@H](CCCNC(=N)N)C(=O)N[C@@H](CCCNC(=N)N)C(=O)N[C@@H](CCCNC(=N)N)C(=O)N[C@@H](CCCNC(=N)N)C(=O)N[C@@H](CCCNC(=N)N)C(=O)N(CCOCCOCCC(=O)N[C@@H](CCCCN)C(=O)N[C@@H](CCC(=O)O)C(=O)N[C@H](C(=O)N[C@H](C(=O)N[C@H](C(=O)O)C(C)C)[C@@H](C)O)[C@@H](C)O)CCOCCOCCC(=O)N[C@@H](CCCCN)C(=O)N[C@@H](CCC(=O)O)C(=O)N[C@H](C(=O)N[C@H](C(=O)N[C@H](C(=O)O)C(C)C)[C@@H](C)O)[C@@H](C)O [Compound 25] | 
3 | 25.5 ± 9.63 h | CC(=O)N[C@@H](CCCNC(=N)N)C(=O)N[C@@H](CCCNC(=N)N)C(=O)N[C@@H](CCCNC(=N)N)C(=O)N[C@@H](CCCNC(=N)N)C(=O)N[C@@H](CCCNC(=N)N)C(=O)N[C@@H](CCCNC(=N)N)C(=O)N[C@@H](CCCNC(=N)N)C(=O)N[C@@H](CCCNC(=N)N)C(=O)N[C@@H](CCCNC(=N)N)C(=O)N(CCOCCOCCC(=O)N[C@@H](CCCCN)C(=O)N[C@@H](CCC(=O)O)C(=O)N[C@H](C(=O)N[C@H](C(=O)N[C@H](C(=O)O)C(C)C)C(C)C)[C@@H](C)O)CCOCCOCCC(=O)N[C@@H](CCCCN)C(=O)N[C@@H](CCC(=O)O)C(=O)N[C@H](C(=O)N[C@H](C(=O)N[C@H](C(=O)O)C(C)C)C(C)C)[C@@H](C)O [Compound 27] | 
4 | 16.7 ± 2.85 h | CC(=O)N[C@@H](CCCNC(=N)N)C(=O)N[C@@H](CCCNC(=N)N)C(=O)N[C@@H](CCCNC(=N)N)C(=O)N[C@@H](CCCNC(=N)N)C(=O)N[C@@H](CCCNC(=N)N)C(=O)N[C@@H](CCCNC(=N)N)C(=O)N[C@@H](CCCNC(=N)N)C(=O)N[C@@H](CCCNC(=N)N)C(=O)N[C@@H](CCCNC(=N)N)C(=O)N(CCOCCOCCC(=O)N[C@@H](CCCCN)C(=O)N[C@@H](CCC(=O)O)C(=O)N[C@H](C(=O)N[C@@H](CCCNC(=N)N)C(=O)N[C@H](C(=O)O)C(C)C)[C@@H](C)O)CCOCCOCCC(=O)N[C@@H](CCCCN)C(=O)N[C@@H](CCC(=O)O)C(=O)N[C@H](C(=O)N[C@@H](CCCNC(=N)N)C(=O)N[C@H](C(=O)O)C(C)C)[C@@H](C)O [Compound 29] | 
5 | 23.4 ± 2.07 h | CC[C@H](C)[C@H](NC(=O)CCOCCOCCN(CCOCCOCCC(=O)N[C@H](C(=O)N[C@@H](CO)C(=O)N[C@H](C(=O)N[C@@H](CC(=O)O)C(=O)N[C@H](C(=O)O)C(C)C)[C@@H](C)O)[C@@H](C)CC)C(=O)[C@H](CCCNC(=N)N)NC(=O)[C@H](CCCNC(=N)N)NC(=O)[C@H](CCCNC(=N)N)NC(=O)[C@H](CCCNC(=N)N)NC(=O)[C@H](CCCNC(=N)N)NC(=O)[C@H](CCCNC(=N)N)NC(=O)[C@H](CCCNC(=N)N)NC(=O)[C@H](CCCNC(=N)N)NC(=O)[C@H](CCCNC(=N)N)NC(C)=O)C(=O)N[C@@H](CO)C(=O)N[C@H](C(=O)N[C@@H](CC(=O)O)C(=O)N[C@H](C(=O)O)C(C)C)[C@@H](C)O [Compound 31] | 
6 | 7.98 ± 1.28 h | CC(=O)N[C@@H](CCCNC(=N)N)C(=O)N[C@@H](CCCNC(=N)N)C(=O)N[C@@H](CCCNC(=N)N)C(=O)N[C@@H](CCCNC(=N)N)C(=O)N[C@@H](CCCNC(=N)N)C(=O)N[C@@H](CCCNC(=N)N)C(=O)N[C@@H](CCCNC(=N)N)C(=O)N[C@@H](CCCNC(=N)N)C(=O)N[C@@H](CCCNC(=N)N)C(=O)N(CCOCCOCCC(=O)N[C@H](C(=O)N[C@@H](CCC(=O)O)C(=O)N[C@H](C(=O)N[C@H](C(=O)N[C@H](C(=O)O)C(C)C)C(C)C)[C@@H](C)O)C(C)C)CCOCCOCCC(=O)N[C@H](C(=O)N[C@@H](CCC(=O)O)C(=O)N[C@H](C(=O)N[C@H](C(=O)N[C@H](C(=O)O)C(C)C)C(C)C)[C@@H](C)O)C(C)C [Compound 33] | 
7 |  | CC[C@H](C)[C@H](NC(=O)CCOCCOCCN(CCOCCOCCC(=O)N[C@H](C(=O)N[C@@H](CCC(=O)O)C(=O)N[C@H](C(=O)N[C@@H](CC(=O)O)C(=O)N[C@H](C(=O)O)C(C)C)[C@@H](C)O)[C@@H](C)CC)C(=O)[C@@H](CCCNC(=N)N)NC(=O)[C@@H](CCCNC(=N)N)NC(=O)[C@@H](CCCNC(=N)N)NC(=O)[C@@H](CCC(N)=O)NC(=O)[C@@H](CCCNC(=N)N)NC(=O)[C@@H](CCCNC(=N)N)NC(=O)[C@@H](CCCCN)NC(=O)[C@@H](CCCCN)NC(=O)[C@@H](CCCNC(=N)N)NC(=O)CNC(=O)[C@@H](Cc1ccc(O)cc1)NC(C)=O)C(=O)N[C@@H](CCC(=O)O)C(=O)N[C@H](C(=O)N[C@@H](CC(=O)O)C(=O)N[C@H](C(=O)O)C(C)C)[C@@H](C)O [Compound 38] | half-life [1]: 24 h
8 | 24 h | CC[C@H](C)[C@H](NC(=O)CCOCCOCCN(CCOCCOCCC(=O)N[C@H](C(=O)N[C@@H](CCC(=O)O)C(=O)N[C@H](C(=O)N[C@@H](CC(=O)O)C(=O)N[C@H](C(=O)O)C(C)C)[C@@H](C)O)[C@@H](C)CC)C(=O)[C@@H](CCCNC(=N)N)NC(=O)[C@H](CCCNC(=N)N)NC(=O)[C@@H](CCCCN)NC(=O)[C@H](CCCCN)NC(=O)[C@@H](CCCNC(=N)N)NC(=O)CNC(=O)[C@@H](CCCNC(=N)N)NC(=O)[C@H](CCCNC(=N)N)NC(=O)[C@@H](CCCNC(=N)N)NC(C)=O)C(=O)N[C@@H](CCC(=O)O)C(=O)N[C@H](C(=O)N[C@@H](CC(=O)O)C(=O)N[C@H](C(=O)O)C(C)C)[C@@H](C)O [Compound 40] | 
9 | 24 h | CC[C@H](C)[C@H](NC(=O)CCOCCOCCN(CCOCCOCCC(=O)N[C@H](C(=O)N[C@@H](CCC(=O)O)C(=O)N[C@H](C(=O)N[C@@H](CC(=O)O)C(=O)N[C@H](C(=O)O)C(C)C)[C@@H](C)O)[C@@H](C)CC)C(=O)[C@@H](CCCNC(=N)N)NC(=O)[C@@H](CCCNC(=N)N)NC(=O)[C@@H](CCCNC(=N)N)NC(=O)[C@@H](CCCNC(=N)N)NC(=O)[C@@H](CCCNC(=N)N)NC(=O)[C@@H](CCCNC(=N)N)NC(=O)[C@@H](CCCNC(=N)N)NC(=O)[C@@H](CCCNC(=N)N)NC(=O)[C@@H](CCCNC(=N)N)NC(C)=O)C(=O)N[C@@H](CCC(=O)O)C(=O)N[C@H](C(=O)N[C@@H](CC(=O)O)C(=O)N[C@H](C(=O)O)C(C)C)[C@@H](C)O [Compound 44] | 
10 |  | CC[C@H](C)[C@H](NC(=O)CCOCCOCCN(CCOCCOCCC(=O)N[C@H](C(=O)N[C@@H](CCC(=O)O)C(=O)N[C@H](C(=O)N[C@@H](CC(=O)O)C(=O)N[C@H](C(=O)O)C(C)C)[C@@H](C)O)[C@@H](C)CC)C(=O)[C@H](CCCCN)NC(=O)[C@H](CCCCN)NC(=O)[C@H](Cc1c[nH]c2ccccc12)NC(=O)[C@H](CCCCN)NC(=O)[C@H](CCSC)NC(=O)[C@H](CCCNC(=N)N)NC(=O)[C@H](CCCNC(=N)N)NC(=O)[C@H](CC(N)=O)NC(=O)[C@H](CCC(N)=O)NC(=O)[C@H](Cc1ccccc1)NC(=O)[C@H](Cc1c[nH]c2ccccc12)NC(=O)[C@@H](NC(=O)[C@H](CCCCN)NC(=O)[C@@H](NC(=O)[C@H](CCC(N)=O)NC(=O)[C@H](CCCNC(=N)N)NC(C)=O)[C@@H](C)CC)[C@@H](C)CC)C(=O)N[C@@H](CCC(=O)O)C(=O)N[C@H](C(=O)N[C@@H](CC(=O)O)C(=O)N[C@H](C(=O)O)C(C)C)[C@@H](C)O [Compound 46] | half-life (isolated enzyme plasmin): 1.57 ± 0.133 h
11 |  | CC[C@@H](C)[C@@H](NC(=O)[C@@H](CCCCN)NC(=O)[C@H](NC(=O)[C@@H](CCC(N)=O)NC(=O)[C@@H](CCCNC(=N)N)NC(C)=O)[C@H](C)CC)C(=O)N[C@H](Cc1c[nH]c2ccccc12)C(=O)N[C@H](Cc1ccccc1)C(=O)N[C@H](CCC(N)=O)C(=O)N[C@H](CC(N)=O)C(=O)N[C@H](CCCNC(=N)N)C(=O)N[C@H](CCCNC(=N)N)C(=O)N[C@H](CCSC)C(=O)N[C@H](CCCCN)C(=O)N[C@H](Cc1c[nH]c2ccccc12)C(=O)N[C@H](CCCCN)C(=O)N[C@H](CCCCN)C(=O)N(CCOCCOCCC(=O)N[C@H](C(=O)N[C@@H](CCC(=O)O)C(=O)N[C@H](C(=O)N[C@@H](CC(=O)O)C(=O)N[C@H](C(=O)O)C(C)C)[C@@H](C)O)[C@@H](C)CC)CCOCCOCCC(=O)N[C@H](C(=O)N[C@@H](CCC(=O)O)C(=O)N[C@H](C(=O)N[C@@H](CC(=O)O)C(=O)N[C@H](C(=O)O)C(C)C)[C@@H](C)O)[C@@H](C)CC [Compound 48] | half-life [1]: 24 h
12 | 2.82 ± 0.333 h | CC[C@H](C)[C@H](NC(=O)CCOCCOCCN(CCOCCOCCC(=O)N[C@H](C(=O)N[C@@H](CCC(=O)O)C(=O)N[C@H](C(=O)N[C@@H](CC(=O)O)C(=O)N[C@H](C(=O)O)C(C)C)[C@@H](C)O)[C@@H](C)CC)C(=O)[C@H](CO)NC(=O)[C@H](CCC(=O)O)NC(=O)[C@H](CCCNC(=N)N)NC(=O)[C@H](CCCNC(=N)N)NC(=O)[C@H](CCCNC(=N)N)NC(=O)[C@H](CCCCN)NC(=O)[C@H](CCCCN)NC(=O)[C@H](CCCNC(=N)N)NC(=O)[C@H](CO)NC(=O)[C@H](CCC(=O)O)NC(=O)[C@H](CCCNC(=N)N)NC(=O)[C@H](CCCNC(=N)N)NC(=O)[C@H](CCCNC(=N)N)NC(=O)[C@H](CCCCN)NC(=O)[C@H](CCCCN)NC(=O)[C@H](CCCNC(=N)N)NC(C)=O)C(=O)N[C@@H](CCC(=O)O)C(=O)N[C@H](C(=O)N[C@@H](CC(=O)O)C(=O)N[C@H](C(=O)O)C(C)C)[C@@H](C)O [Compound 50] | 
